Where “and” joins values, the source holds several entries; their conditions need not be identical. Equal entries are not always repeated.
What was measured:
human TLR-4 receptor = target: T1, human TLR-4 receptor (Homo sapiens, UniProt O00206+Q9Y6Y9); assay: NFκB-inducible secreted alkaline phosphatase reporter in HEK-293 cells over-expressing human TLR-4; format: cell-based; settings: hTLR-4 HEK-293, 18 h
T1 construct: expressed in transfected cells; host or cells: HEK-293
Method: (§1) HEK-293 cell lines engineered to functionally over-express human or murine TLR-4 receptor were utilized in the experiments below. These cells also contain a reporter gene (a secreted alkaline phosphatase) under the control of a NFκB inducible promoter. TLR-4 activation results are given as optical density (OD) values after 18 hours stimulation of the designated HEK-293 cell lines.
(§2) Samples and controls are tested in duplicate on recombinant HEK-293 cell lines. The negative controls for the assay were the parental HEK-293 cell lines transfected only with the reporter gene. Negative control cells were stimulated with TNF-α, an inducer of NFκB activity. The positive controls for the assay were HEK-293 cells transfected with human TLR-4 (hTLR-4) or mouse TLR-4 (mTLR-4) along with the reporter construct and activated with LPS 0111 (obtained from E. coli 0111:B4 strain) from 100 ng/ml to 0.01 ng/ml or with LPS K12 (obtained from E. coli K12 strain) from 100 ng/ml to 0.01 ng/ml.
(§3) Another synthetic disaccharide lipid compound used in this assay in an independent experiment, was the compound of the structure XV (referred to herein as MPLA-C). […] Test compounds were used at the following concentrations: 5.7 μM/570 nM/171 nM/57 nM/17 nM/5.7 nM/well to stimulate in duplicate hTLR4 and mTLR4 expressing cell lines.

[1] = tested on: murine parental cell line (mTLR); assay: Negative control: murine parental HEK-293 cell line transfected only with the reporter gene; format: cell-based, mouse; settings: parental HEK-293, 18 h
Method: as §1, §2
Another synthetic disaccharide lipid compound used in this assay in an independent experiment was the compound of the structure X (referred to herein as MPLA-D). […] Test compounds were used at the following concentrations: 5.71 μM/570 nM/171 nM/57 nM/17 nM/5.7 nM/well to stimulate in duplicate mTLR4 expressing cell lines.
as §3

T1 sequence (O00206 24-839): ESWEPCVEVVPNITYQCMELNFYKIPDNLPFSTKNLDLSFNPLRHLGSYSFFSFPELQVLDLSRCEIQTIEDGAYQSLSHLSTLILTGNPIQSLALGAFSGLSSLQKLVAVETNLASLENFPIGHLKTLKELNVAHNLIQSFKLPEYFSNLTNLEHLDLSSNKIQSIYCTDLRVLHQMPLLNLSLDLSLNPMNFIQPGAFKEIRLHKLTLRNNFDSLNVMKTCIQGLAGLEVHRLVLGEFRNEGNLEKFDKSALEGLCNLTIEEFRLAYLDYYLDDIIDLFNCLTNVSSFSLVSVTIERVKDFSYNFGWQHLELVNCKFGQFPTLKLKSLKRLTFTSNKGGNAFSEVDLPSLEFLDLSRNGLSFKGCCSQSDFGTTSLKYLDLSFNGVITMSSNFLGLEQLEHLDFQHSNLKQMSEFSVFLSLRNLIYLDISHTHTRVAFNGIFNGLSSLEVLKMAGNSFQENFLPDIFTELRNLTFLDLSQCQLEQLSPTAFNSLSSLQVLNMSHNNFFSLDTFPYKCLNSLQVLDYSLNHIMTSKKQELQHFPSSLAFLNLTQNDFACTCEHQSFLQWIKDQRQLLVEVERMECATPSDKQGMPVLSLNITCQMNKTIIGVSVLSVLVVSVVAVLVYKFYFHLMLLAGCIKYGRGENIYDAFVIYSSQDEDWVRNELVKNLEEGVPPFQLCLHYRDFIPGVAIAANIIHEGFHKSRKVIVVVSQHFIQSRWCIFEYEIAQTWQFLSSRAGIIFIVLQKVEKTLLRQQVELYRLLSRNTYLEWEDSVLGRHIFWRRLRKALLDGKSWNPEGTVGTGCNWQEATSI
T1 sequence (Q9Y6Y9 17-160 limits assumed): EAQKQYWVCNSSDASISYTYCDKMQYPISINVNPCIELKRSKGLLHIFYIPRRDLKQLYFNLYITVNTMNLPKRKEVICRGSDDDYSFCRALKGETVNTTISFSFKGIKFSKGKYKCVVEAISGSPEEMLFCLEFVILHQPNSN

TNF-α
TLR-4 activation, optical density (OD) (human TLR-4 receptor; 0.1 ng/ml): 0.275 OD
TLR-4 activation, optical density (OD) (human TLR-4 receptor; 0.3 ng/ml): 0.577 OD
TLR-4 activation, optical density (OD) (human TLR-4 receptor; 1 ng/ml): 0.899 OD
TLR-4 activation, optical density (OD) (human TLR-4 receptor; 3 ng/ml): 1.135 OD
TLR-4 activation, optical density (OD) (human TLR-4 receptor; 10 ng/ml): 1.262 OD
TLR-4 activation, optical density (OD) (human TLR-4 receptor; 30 ng/ml): 1.387 OD
NFκB reporter, optical density (OD), negative control cells ([1]; 0.3 ng/ml): 0.035 OD and 0.025 OD and 0.027 OD
NFκB reporter, optical density (OD), negative control cells ([1]; 3 ng/ml): 0.033 OD and 0.027 OD and 0.024 OD
NFκB reporter, optical density (OD), negative control cells ([1]; 30 ng/ml): 3.586 OD and 3.502 OD and 3.663 OD
